Laboratory results from PubChem BioAssay (NCI).
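Method: 48-hour compound exposure of cells in 96-well plates, five concentrations, linear interpolation of endpoints. TGI marks complete inhibition of growth.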

How the values were obtained:
Experiment in all cases: NCI-60 cell line screen, 48 h
COLO 205 colon = tested on: COLO 205 colon
EKVX NSCLC = tested on: EKVX NSCLC
MDA-N = tested on: MDA-N
MDA-MB-231 breast = tested on: MDA-MB-231 breast
SR leukemia = tested on: SR leukemia
NCI-H460 lung = tested on: NCI-H460 lung
T-47D breast = tested on: T-47D breast
HOP-92 NSCLC = tested on: HOP-92 NSCLC
K-562 leukemia = tested on: K-562 leukemia
OVCAR-3 ovarian = tested on: OVCAR-3 ovarian
RXF 393 renal = tested on: RXF 393 renal
SK-MEL-5 melanoma = tested on: SK-MEL-5 melanoma
MOLT-4 leukemia = tested on: MOLT-4 leukemia
TK-10 renal = tested on: TK-10 renal
SN12C renal = tested on: SN12C renal
786-0 renal = tested on: 786-0 renal
SF-295 CNS = tested on: SF-295 CNS
ACHN renal = tested on: ACHN renal
SK-MEL-2 melanoma = tested on: SK-MEL-2 melanoma
DU-145 prostate = tested on: DU-145 prostate

Compound: CC(C)c1nc2cc(C(F)(F)F)ccc2[nH]c1=O
- TGI (COLO 205 colon): > 100 µM
- TGI (EKVX NSCLC): > 100 µM
- TGI (MDA-N): > 100 µM
- TGI (MDA-MB-231 breast): > 100 µM
- TGI (SR leukemia): > 100 µM
- TGI (NCI-H460 lung): > 100 µM
- TGI (T-47D breast): > 100 µM
- TGI (HOP-92 NSCLC): > 100 µM
- TGI (K-562 leukemia): > 100 µM
- TGI (OVCAR-3 ovarian): > 100 µM
- TGI (RXF 393 renal): > 100 µM
- TGI (SK-MEL-5 melanoma): > 100 µM
- TGI (MOLT-4 leukemia): > 100 µM
- TGI (TK-10 renal): > 100 µM
- TGI (SN12C renal): > 100 µM
- TGI (786-0 renal): > 100 µM
- TGI (SF-295 CNS): > 100 µM
- TGI (ACHN renal): > 100 µM
- TGI (SK-MEL-2 melanoma): > 100 µM

Compound: Cn1c(N)c(C(N)=O)[nH]c1=S
- TGI (COLO 205 colon): > 100 µM
- TGI (EKVX NSCLC): > 100 µM
- TGI (DU-145 prostate): > 100 µM
- TGI (MDA-N): > 100 µM
- TGI (MDA-MB-231 breast): > 100 µM
- TGI (SR leukemia): > 100 µM
- TGI (NCI-H460 lung): > 100 µM
- TGI (T-47D breast): > 100 µM
- TGI (K-562 leukemia): > 100 µM
- TGI (OVCAR-3 ovarian): > 100 µM
- TGI (RXF 393 renal): > 100 µM
- TGI (SK-MEL-5 melanoma): > 100 µM
- TGI (MOLT-4 leukemia): > 100 µM
- TGI (TK-10 renal): > 100 µM
- TGI (SN12C renal): > 100 µM
- TGI (786-0 renal): > 100 µM
- TGI (SF-295 CNS): > 100 µM
- TGI (ACHN renal): > 100 µM
- TGI (SK-MEL-2 melanoma): > 100 µM

Compound: O=C(NCCCCN(CCCNC(=O)C(F)(F)F)Cc1ccc2ccccc2c1)C(F)(F)F
- TGI (COLO 205 colon): 30.3 µM
- TGI (EKVX NSCLC): 35.8 µM
- TGI (DU-145 prostate): 56.1 µM
- TGI (MDA-N): 31.6 µM
- TGI (MDA-MB-231 breast): 31.1 µM
- TGI (NCI-H460 lung): 29.9 µM
- TGI (T-47D breast): 40.2 µM
- TGI (HOP-92 NSCLC): 67.1 µM
- TGI (K-562 leukemia): 37 µM
- TGI (RXF 393 renal): 52.9 µM
- TGI (SK-MEL-5 melanoma): 48.9 µM
- TGI (MOLT-4 leukemia): 49 µM
- TGI (TK-10 renal): 47.9 µM
- TGI (SN12C renal): 30.3 µM
- TGI (786-0 renal): 30.6 µM
- TGI (SF-295 CNS): 32.7 µM
- TGI (ACHN renal): 38.9 µM

Compound: CC(C)(C)n1c(=O)[nH]n(C2NN=Cc3cccc4cccc2c34)c1=O (stereo not given)
- TGI (COLO 205 colon): 74.9 µM
- TGI (EKVX NSCLC): 68.8 µM
- TGI (DU-145 prostate): > 100 µM
- TGI (MDA-N): 59.4 µM
- TGI (MDA-MB-231 breast): > 100 µM
- TGI (SR leukemia): 37.4 µM
- TGI (NCI-H460 lung): > 100 µM
- TGI (T-47D breast): > 100 µM
- TGI (K-562 leukemia): 40.7 µM
- TGI (OVCAR-3 ovarian): > 100 µM
- TGI (RXF 393 renal): 72.2 µM
- TGI (MOLT-4 leukemia): 81.1 µM
- TGI (TK-10 renal): > 100 µM
- TGI (SN12C renal): > 100 µM
- TGI (786-0 renal): > 100 µM
- TGI (SK-MEL-2 melanoma): > 100 µM

Compound: O=C(Nc1nc(C23CC4CC(CC(C4)C2)C3)cs1)c1c(O)c2ccccc2[nH]c1=O
- TGI (COLO 205 colon): > 100 µM
- TGI (EKVX NSCLC): > 100 µM
- TGI (DU-145 prostate): > 100 µM
- TGI (MDA-N): > 100 µM
- TGI (MDA-MB-231 breast): > 100 µM
- TGI (SR leukemia): > 100 µM
- TGI (NCI-H460 lung): > 100 µM
- TGI (HOP-92 NSCLC): > 100 µM
- TGI (K-562 leukemia): > 100 µM
- TGI (OVCAR-3 ovarian): > 100 µM
- TGI (RXF 393 renal): > 100 µM
- TGI (SK-MEL-5 melanoma): > 100 µM
- TGI (MOLT-4 leukemia): > 100 µM
- TGI (TK-10 renal): > 100 µM
- TGI (SN12C renal): > 100 µM
- TGI (786-0 renal): > 100 µM
- TGI (SF-295 CNS): > 100 µM
- TGI (ACHN renal): > 100 µM

Compound: C=CCOC(=O)Cn1cc(C)c(=O)[nH]c1=O
- TGI (COLO 205 colon): > 100 µM
- TGI (EKVX NSCLC): > 100 µM
- TGI (DU-145 prostate): > 100 µM
- TGI (MDA-N): > 100 µM
- TGI (MDA-MB-231 breast): > 100 µM
- TGI (SR leukemia): > 100 µM
- TGI (NCI-H460 lung): > 100 µM
- TGI (T-47D breast): > 100 µM
- TGI (K-562 leukemia): > 100 µM
- TGI (SK-MEL-5 melanoma): > 100 µM
- TGI (MOLT-4 leukemia): > 100 µM
- TGI (TK-10 renal): > 100 µM
- TGI (SN12C renal): > 100 µM
- TGI (786-0 renal): > 100 µM
- TGI (SF-295 CNS): > 100 µM
- TGI (ACHN renal): > 100 µM
- TGI (SK-MEL-2 melanoma): > 100 µM

Compound: c1ccc2c(c1)Nc1ccccc1[P+]21c2ccccc2Nc2ccccc21
- TGI (COLO 205 colon): 0.202 µM
- TGI (EKVX NSCLC): 2.74 µM
- TGI (DU-145 prostate): 3.46 µM
- TGI (MDA-N): 1.11 µM
- TGI (MDA-MB-231 breast): 0.588 µM
- TGI (SR leukemia): 1.4 µM
- TGI (NCI-H460 lung): 2.81 µM
- TGI (T-47D breast): 1.91 µM
- TGI (K-562 leukemia): 1.75 µM
- TGI (OVCAR-3 ovarian): 0.612 µM
- TGI (RXF 393 renal): 0.891 µM
- TGI (SK-MEL-5 melanoma): 0.31 µM
- TGI (MOLT-4 leukemia): 1.11 µM
- TGI (TK-10 renal): 5.93 µM
- TGI (SN12C renal): 0.631 µM
- TGI (786-0 renal): 2.87 µM
- TGI (SF-295 CNS): 5.16 µM
- TGI (ACHN renal): 9.29 µM
- TGI (SK-MEL-2 melanoma): 0.482 µM
